Data: PubChem BioAssay (NCI)
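GI50 marks 50% less growth. At the TGI there is no net growth.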

Tests used:
Assay in all cases: NCI tumour cell line growth inhibition, 384-well format
[1] = system: MCF7 breast
[2] = system: NCI-H460 NSCLC
[3] = system: U251 glioblastoma
[4] = system: CCRF-CEM leukemia
[5] = system: UACC-257 melanoma
[6] = system: T-47D breast
[7] = system: 786-0 renal
[8] = system: SNB-75 CNS
[9] = system: UACC-62 melanoma
[10] = system: DU-145 prostate
[11] = system: PC-3 prostate
[12] = system: SN12C renal
[13] = system: HOP-62 NSCLC
[14] = system: SK-MEL-28 melanoma
[15] = system: A549 NSCLC
[16] = system: HL-60(TB) leukemia
[17] = system: SF-539 CNS
[18] = system: HS 578T breast
[19] = system: UO-31 renal
[20] = system: ACHN renal
[21] = system: SR leukemia
[22] = system: MDA-MB-231 breast
[23] = system: SF-295 CNS
[24] = system: NCI-H522 lung
[25] = system: NCI-H322M lung
[26] = system: NCI/ADR-RES ovarian
[27] = system: RPMI-8226 leukemia
[28] = system: MDA-MB-435 melanoma
[29] = system: OVCAR-3 ovarian
[30] = system: COLO 205 colon
[31] = system: RXF 393 renal
[32] = system: EKVX NSCLC
[33] = system: HCT-116 colon
[34] = system: HOP-92 NSCLC
[35] = system: OVCAR-8 ovarian
[36] = system: K-562 leukemia
[37] = system: HT29 colon
[38] = system: NCI-H23 lung
[39] = system: NCI-H226 lung
[40] = system: A498 renal
[41] = system: MDA-MB-468 breast
[42] = system: KM12 colon
[43] = system: M14 melanoma
[44] = system: SK-MEL-2 melanoma
[45] = system: LOX IMVI melanoma
[46] = system: SK-OV-3 ovarian
[47] = system: HCC-2998 colon

`CC1(N)CCN(c2cccnc2NC(=O)c2nc(-c3ncccc3C(F)(F)F)cnc2N)CC1` was tested, and the GI50 [1] was 24.6 µM, the TGI [1] was greater than 54.9 µM and the GI50 [2] was 17.6 µM. For the same compound, the TGI [2] was 32.4 µM, the GI50 [3] was 13.6 µM and the TGI [3] was 30.5 µM. It also gave a GI50 [4] of 15.4 µM, a TGI [4] of 28.9 µM and a GI50 [5] of 7.77 µM. The TGI [5] was 20.8 µM, the GI50 [6] was 11.6 µM and the TGI [6] was 26.9 µM. It also gave a GI50 [7] of 8.25 µM, a TGI [7] of 24 µM and a GI50 [8] of 17 µM. The TGI [8] was 48.2 µM, the GI50 [9] was 19.4 µM and the TGI [9] was greater than 53.4 µM. The GI50 [10] was 19.3 µM, the TGI [10] was greater than 58.8 µM and the GI50 [11] was 16.7 µM. It also gave a TGI [11] of 57 µM, a GI50 [12] of 21 µM and a TGI [12] of 56.8 µM. It also gave a GI50 [13] of 28.8 µM, a TGI [13] greater than 77.6 µM and a GI50 [14] of 24.2 µM. It also gave a TGI [14] greater than 62.3 µM, a GI50 [15] of 25 µM and a TGI [15] greater than 65 µM. The GI50 [16] was 7.32 µM, the TGI [16] was 18 µM and the GI50 [17] was 24 µM. For the same compound, the TGI [17] was greater than 51.2 µM, the GI50 [18] was 15.9 µM and the TGI [18] was 33.2 µM. For the same compound, the GI50 [19] was 31 µM, the TGI [19] was greater than 100 µM and the GI50 [20] was 22.7 µM. For the same compound, the TGI [20] was greater than 94.7 µM, the GI50 [21] was 9.47 µM and the TGI [21] was 21.5 µM. It also gave a GI50 [22] of 20.5 µM, a TGI [22] of 46.9 µM and a GI50 [23] greater than 49.3 µM. It also gave a TGI [23] greater than 72.6 µM, a GI50 [24] of 4.86 µM and a TGI [24] of 18.8 µM. The GI50 [25] was 23.7 µM, the TGI [25] was greater than 60 µM and the GI50 [26] was greater than 100 µM. It also gave a TGI [26] greater than 100 µM, a GI50 [27] of 10.4 µM and a TGI [27] of 32.8 µM. For the same compound, the GI50 [28] was greater than 56.1 µM, the TGI [28] was greater than 100 µM and the GI50 [29] was 15.1 µM. The TGI [29] was 44.5 µM, the GI50 [30] was 17.9 µM and the TGI [30] was greater than 54.6 µM. It also gave a GI50 [31] of 12.5 µM, a TGI [31] of 25.5 µM and a GI50 [32] of 7.15 µM. The TGI [32] was 38.9 µM, the GI50 [33] was 11.6 µM and the TGI [33] was 26 µM. The GI50 [34] was 20.4 µM, the TGI [34] was 57.6 µM and the GI50 [35] was 30.9 µM. The TGI [35] was greater than 70.5 µM, the GI50 [36] was 16.3 µM and the TGI [36] was 31.3 µM. For the same compound, the GI50 [37] was 17.2 µM, the TGI [37] was greater than 58.8 µM and the GI50 [38] was 29.7 µM. For the same compound, the TGI [38] was greater than 78.7 µM, the GI50 [39] was 16.9 µM and the TGI [39] was 47.4 µM. The GI50 [40] was 8.29 µM, the TGI [40] was 22.8 µM and the GI50 [41] was 13.6 µM. For the same compound, the TGI [41] was 28.2 µM, the GI50 [42] was 0.308 µM and the TGI [42] was 20.2 µM. It also gave a GI50 [43] of 20.3 µM, a TGI [43] of 40.3 µM and a GI50 [44] of 18.4 µM. For the same compound, the TGI [44] was 47.2 µM, the GI50 [45] was 19 µM and the TGI [45] was 33.6 µM. For the same compound, the GI50 [46] was 17.8 µM, the TGI [46] was 38.6 µM and the GI50 [47] was 17.9 µM. The TGI [47] was 33.4 µM.
